{"source": "patent US11273126B2", "about": "“Amorphous dispersion of cyclopropanecarboxylic acid (5-{5-[N′-(2-chloro-6-methylbenzoyl) hydrazinocarbonyl]-2-methyl-phenylethynyl}-pyridin-2-yl) amide” (SUN PHARMA ADVANCED RESEARCH COMPANY LIMITED, priority 2017, dated 2022)", "assay": "Oral administration to dogs, plasma levels of compound of formula I (bioavailability)", "type": "in vivo", "settings": "dog, plasma level of compound of formula I", "description": "Suitable amount of amorphous dispersion of Example I and the crystalline form of compound of formula I suspended in a vehicle were administered orally to dogs. Blood samples were withdrawn at various time intervals and the plasma levels of compound of formula I were recorded. The Cmax, AUC0 to 1 and AUC0-∞, in plasma are tabulated below.", "data": [{"compound": "Cc1ccc(C(=O)NNC(=O)c2c(C)cccc2Cl)cc1C#Cc1ccc(NC(=O)C2CC2)nc1", "note": "[Compound of formula I in a vehicle, cyclopropanecarboxylic acid (5-{5-[N′-(2-chloro-6-methylbenzoyl) hydrazinocarbonyl]-2-methyl-phenylethynyl}-pyridin-2-yl)amide]", "values": [{"measurement": "AUC(0-inf)", "value": 388, "unit": "ng·h/mL"}, {"measurement": "AUC(0-t)", "value": 290, "unit": "ng·h/mL"}, {"measurement": "Cmax", "value": 41, "unit": "ng/mL"}]}]}
